Key:
Type in all cases: cell-based
Vero E6 cells = experiment: Alamar Blue cell viability (cytotoxicity) assay; conditions: 48 hrs
Protocol: (§1) Compounds to be tested were dissolved in DMSO at 20 mM concentration and stored at −20° C. Stock solutions were diluted with DMEM medium to result 100 μM concentration. The DMSO content was 0.5% in the highest concentration containing wells.
(§2) In vitro cytotoxicity testing of the compounds was performed by the Alamar Blue cell viability assay. Briefly, Vero E6 cells were plated in a 96-well flat bottom tissue culture plates in 10% FBS containing DMEM media (5000 cells/100 μL) one day prior to experiment. Before the test, 50 μL supernatant was removed and replaced with 50 μL DMEM serum free (SFM) medium. […] Two days after, 20 μL Alamar Blue (resazurin sodium salt, Merck) solution (0.15 mg/mL in PBS, filtered […] Merck) was added to each well and after 3-3.5 hrs of incubation the fluorescence was measured at λEx=530/30 and at λEM=610/10 nm using a Synergy H4 multi-mode microplate reader (BioTek). All measurements were performed in quadruplets and the mean IC50 values together with SEM were represented on the graphs.

SARS-CoV-2 [1] = conditions: SARS-CoV-2 infected Vero E6 cells, 48 hours of incubation
SARS-CoV-2 [2] = experiment: Viral copy number by RT-qPCR from supernatant; conditions: supernatant of infected Vero E6 cells
[3] = Alamar Blue cell viability (cytotoxicity) assay; conditions: African green monkey, Vero E6 host cells
Protocol: as §1, §2

CC(=O)Oc1ccccc1C(=O)Nc1ncc([N+](=O)[O-])s1 [Nitazoxanide]
toxicity on the host cells (Vero E6 cells; range up to 100 μM): around 35%

C=C(C)[C@H]1C[C@@]2(C)C(=CC1=O)CC[C@@H](O)[C@@H]2C [neopetasol, (3R,4aR,5R,6R)-6-hydroxy-4a,5-dimethyl-3-prop-1-en-2-yl-3,4,5,6,7,8-hexahydronaphthalen-2-one]
antiviral effect (virus-induced CPE, TCID50/mL) (SARS-CoV-2 [1]): markedly different than petasol

C=C(C)[C@@H]1C[C@@]2(C)C(=CC1=O)CC[C@@H](O)[C@@H]2C [Petasol, (3S,4aR,5R,6R)-6-hydroxy-4a,5-dimethyl-3-prop-1-en-2-yl-3,4,5,6,7,8-hexahydronaphthalen-2-one]
in vitro cytotoxicity (not cytotoxic up to) (Vero E6 cells; Vero E6 host cells): > 100 µM | viral RNA copy numbers (antiviral effect) (SARS-CoV-2 [2]): high similarity with the TCID50 values

CCN(CC)CCCC(C)Nc1ccnc2cc(Cl)ccc12 (stereo not drawn) [Chloroquine]
IC50 at 48 h [3]: 34 µM

CC(C)=C1C[C@@]2(C)C(=CC1=O)CC[C@@H](O)[C@@H]2C [isopetasol, (4aR,5R,6R)-6-hydroxy-4a,5-dimethyl-3-propan-2-ylidene-5,6,7,8-tetrahydro-4H-naphthalen-2-one]
antiviral effect (virus-induced CPE, TCID50/mL) (SARS-CoV-2 [1]): markedly different than petasol

From patent US20250248965A1, “HEXAHYDRONAPHTHALEN-2-ONE DERIVATIVES FOR USE AGAINST A CORONAVIRUS INFECTION” (TÁMOGATOTT KUTATÓCSOPORTOK IRODÁJA, priority 2021, published 2025)
